24 compounds from ChEMBL document CHEMBL1135903 (J Med Chem, 2002) can be followed below.

≈ marks a conversion by molar mass, not a printed value.

Data set [1] can be described thus: Solubility in Chloroform buffer at pH 7.4. The data set is classed as physicochemical.
For the next data set, the target named is T1, Carbonic anhydrase 4 (Bos taurus, UniProt Q95323).
T1 sequence (Q95323 whole entry): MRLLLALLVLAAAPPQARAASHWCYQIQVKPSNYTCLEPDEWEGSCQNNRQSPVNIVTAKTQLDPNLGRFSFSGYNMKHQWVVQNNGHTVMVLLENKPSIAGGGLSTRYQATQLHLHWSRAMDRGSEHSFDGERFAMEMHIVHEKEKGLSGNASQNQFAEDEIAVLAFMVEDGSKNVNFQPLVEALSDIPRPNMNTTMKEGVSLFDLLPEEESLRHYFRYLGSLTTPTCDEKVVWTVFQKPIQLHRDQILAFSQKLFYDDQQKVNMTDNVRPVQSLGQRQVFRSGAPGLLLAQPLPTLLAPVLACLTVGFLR

Assay in data set [2]: not given
This is another data set of the same source.

The conditions of data set [3]: octanol/water.
The target of a further data set is Carbonic anhydrase 1 (Homo sapiens, UniProt P00915).
Chain of Carbonic anhydrase 1 (P00915 whole entry): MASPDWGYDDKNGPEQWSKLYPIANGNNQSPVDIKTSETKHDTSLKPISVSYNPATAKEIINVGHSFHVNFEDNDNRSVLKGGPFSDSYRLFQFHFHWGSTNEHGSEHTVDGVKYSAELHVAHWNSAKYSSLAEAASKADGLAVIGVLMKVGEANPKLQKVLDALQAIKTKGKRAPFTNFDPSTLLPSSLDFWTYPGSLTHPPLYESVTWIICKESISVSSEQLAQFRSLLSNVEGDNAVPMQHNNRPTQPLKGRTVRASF

Description for Carbonic anhydrase 1: Inhibitory activity against Human carbonic anhydrase I
Description for Carbonic anhydrase 4: Inhibitory activity against bovine carbonic anhydrase IV

Take `NS(=O)(=O)c1ccc(NC(=O)CN(CCN(CCN(CC(=O)O)CC(=O)O)CC(=O)O)CC(=O)O)cc1`: the “Kin x10e3” value is on record as 6.9 hr-1. The same compound displayed a solubility in data set [1] of 48 mM (≈ 26.3 mg/mL). The compound further showed a Ki on Carbonic anhydrase 4 of 180 nM. In addition, the “Kin x10e3” value in data set [2] is listed as 3.8 hr-1. Also, in data set [3], the logD was found to be 0.983.

Consider `NS(=O)(=O)c1ccc(NC(=O)CN(CCN(CC(=O)O)CC(=O)Nc2ccc(S(N)(=O)=O)cc2Cl)CC(=O)O)c(Cl)c1`, for which the Ki turned out to be 50 nM at Carbonic anhydrase 4 and 225 nM on Carbonic anhydrase 1.

On to `NS(=O)(=O)c1ccc(NC(=O)CNCC(=O)O)c(I)c1`, for which the Ki came to 114 nM at Carbonic anhydrase 4 and 515 nM on Carbonic anhydrase 1.

Take `NS(=O)(=O)c1cccc(NC(=O)CNCC(=O)O)c1`: the Ki on Carbonic anhydrase 4 was 1500 nM; at Carbonic anhydrase 1, 23000 nM.

`NS(=O)(=O)c1ccc(CCNC(=O)CNCCNCC(=O)O)cc1`: the Ki amounted to 250 nM at Carbonic anhydrase 4 and 1540 nM on Carbonic anhydrase 1.

For the compound `NS(=O)(=O)c1ccc(COC(=O)CN(CCOCCOCCN(CC(=O)O)CC(=O)O)CC(=O)O)cc1`, the inhibition constant Ki is 250 nM on Carbonic anhydrase 4 and 500 nM on Carbonic anhydrase 1.

`NS(=O)(=O)c1ccc(NC(=O)CN(CCN(CC(=O)O)CC(=O)Nc2ccc(S(N)(=O)=O)cc2F)CC(=O)O)c(F)c1`: the Ki at Carbonic anhydrase 4 worked out at 35 nM; on Carbonic anhydrase 1 it was 240 nM.

Turning to `NS(=O)(=O)c1ccc(NC(=O)CN(CCOCCOCCN(CC(=O)O)CC(=O)O)CC(=O)O)c(I)c1`, the Ki on Carbonic anhydrase 4 worked out at 24 nM; on Carbonic anhydrase 1, 76 nM.

For the compound `NS(=O)(=O)c1ccc(NC(=O)CN(CCOCCOCCN(CC(=O)O)CC(=O)Nc2ccc(S(N)(=O)=O)cc2)CC(=O)O)cc1`, the results for the Ki at Carbonic anhydrase 4 and at Carbonic anhydrase 1 were 76 nM and 300 nM, respectively.

On to `NS(=O)(=O)c1ccccc1NC(=O)CN(CCOCCOCCN(CC(=O)O)CC(=O)O)CC(=O)O`, for which the Ki was 545 nM on Carbonic anhydrase 4 and 8900 nM on Carbonic anhydrase 1.

On to `NS(=O)(=O)c1nc2ccc(OCCOC(=O)CNCCNCC(=O)O)cc2s1`, for which the Ki on Carbonic anhydrase 4 is 9 nM; at Carbonic anhydrase 1 it was 43 nM.

Consider `NS(=O)(=O)c1ccc(CNC(=O)CN(CC(=O)O)CC(=O)O)cc1`, for which the inhibition constant Ki was 256 nM at Carbonic anhydrase 4 and 3500 nM on Carbonic anhydrase 1.

In the case of `NS(=O)(=O)c1ccc(CCOC(=O)CN(CCN(CC(=O)O)CC(=O)O)CC(=O)O)cc1`, the Ki was determined as 310 nM at Carbonic anhydrase 4 and 640 nM at Carbonic anhydrase 1.

With `NS(=O)(=O)c1ccc(NNC(=O)CNCC(=O)O)cc1`, the values for the Ki at Carbonic anhydrase 4 and on Carbonic anhydrase 1 were 980 nM and 32700 nM, respectively.

For `NS(=O)(=O)c1ccc(COC(=O)CN(CCOCCOCCN(CC(=O)O)CC(=O)OCc2ccc(S(N)(=O)=O)cc2)CC(=O)O)cc1`, the Ki came out at 150 nM on Carbonic anhydrase 4 and 335 nM at Carbonic anhydrase 1.

In the case of `NS(=O)(=O)c1ccc(COC(=O)CNCCNCC(=O)O)cc1`, the Ki was determined as 350 nM on Carbonic anhydrase 4 and 1020 nM on Carbonic anhydrase 1.

With `NS(=O)(=O)c1nc2ccc(OCCOC(=O)CN(CCN(CC(=O)O)CC(=O)O)CC(=O)O)cc2s1`, the values for the Ki at Carbonic anhydrase 4 and on Carbonic anhydrase 1 were 8 nM and 39 nM, respectively.

As for `NS(=O)(=O)c1ccc(CNC(=O)CN(CCN(CC(=O)O)c2ccccc2O)c2ccccc2O)cc1`, the inhibition constant (Ki) was found to be 135 nM on Carbonic anhydrase 4 and 1200 nM at Carbonic anhydrase 1.

In the case of `NS(=O)(=O)c1ccc(CCOC(=O)CN(CCN(CC(=O)O)CC(=O)OCCc2ccc(S(N)(=O)=O)cc2)CC(=O)O)cc1`, the inhibition constant Ki at Carbonic anhydrase 4 came to 165 nM; at Carbonic anhydrase 1, 450 nM.

As for `NS(=O)(=O)c1cccc(NC(=O)CN(CCOCCOCCN(CC(=O)O)CC(=O)Nc2cccc(S(N)(=O)=O)c2)CC(=O)O)c1`, the inhibition constant Ki at Carbonic anhydrase 4 is 400 nM; at Carbonic anhydrase 1, 6150 nM.

Consider `NS(=O)(=O)c1ccccc1NC(=O)CNCC(=O)O`, for which the values for the inhibitory constant (Ki) at Carbonic anhydrase 4 and at Carbonic anhydrase 1 were 1240 nM and 27000 nM, respectively.

Take `NS(=O)(=O)c1cccc(NC(=O)CN(CC(=O)O)CC(=O)O)c1`: the inhibition constant Ki on Carbonic anhydrase 4 was 1520 nM; on Carbonic anhydrase 1, 23000 nM.

As to `NS(=O)(=O)c1nc2ccc(OC(=O)CNCC(=O)O)cc2s1`, the Ki at Carbonic anhydrase 4 was 14 nM; at Carbonic anhydrase 1 it was 50 nM.

As for `NS(=O)(=O)c1nc2ccc(OCCOC(=O)CNCC(=O)O)cc2s1`, the inhibition constant (Ki) at Carbonic anhydrase 4 turned out to be 12 nM; at Carbonic anhydrase 1, 46 nM.
